{
  "source": "patent US12246009B2",
  "about": "“Compositions and methods for treating neurodegenerative, myodegenerative, and lysosomal storage disorders” (GEORGETOWN UNIVERSITY, priority 2018, dated 2025)",
  "key": {"[1]": {"test_system": "B35 cells", "experiment": "Lactate dehydrogenase (LDH) assay, cytotoxicity / cell viability", "assay_type": "cell-based", "conditions": "for LDH measured in the media (cell death / toxicity): 24 hour transfection with pTau or α-synuclein", "protocol": "Rat neuroblastoma B35 cells were grown in Dulbecco's Modified Eagle's Medium (DMEM) with 10% Fetal Bovine Serum (FBS) and 1% penicillin/streptomycin and incubated at 37° C. with 5% CO2. For the experiments, cells were transferred to 12-well plates (Cat. #150628, ThermoFisher, Waltham, MA) and grown to at least 70% confluence. Transient transfection was performed with 3 μg P301 L tau (Cat. #30145, Addgene) cDNA or 3 μg human α-synuclein cDNA using Fugene HD transfection reagent (Cat. #E2311, Promega, Madison WI) for 24 hours. […] Cell culture media was collected and cells were harvested using sodium-tris, EDTA, NP-40 (STEN) buffer and centrifuged at 10,000×g for 20 minutes at 4′C and supernatant was collected. Cell viability was determined via lactate dehydrogenase assay (Cat. #88954, Thermofisher) and MTT assay (Cat. #V13154, Thermofisher). Protein was extracted by removing culture medium and adding 0.2 ml 1× STEN buffer (50 mM. Tris (pH 7.6), 150 mM NaCl, 2 mM EDTA, 0.2% NP-40, 0.2% BSA, 20 mM. PMSF and protease cocktail inhibitor) to cell layer and incubated on ice for 10 minutes. The bottom of the well was scraped and allowed to incubate on ice for an additional 10 minutes. Cell lysates were collected, stored at −80° C., and used for additional analyses.\nCellular cytotoxicity was quantitatively measured by assessment of LDH; a cytosolic enzyme that is released from damaged cells into the cellular media, after exposure to the drug 5 hours after initial dosage. The cell culture media was collected, and an aliquot was coupled with a lactate and NAD+. LDH catalyzes the reaction that converts lactate into pyruvate to produce NADH. NADH, in turn, reduces a tetrazolium salt (INT) into a red formazan product. The amount of LDH in the media is proportional to the amount of formazan, which was measured at 490 nm. The absorbance at 680 nm, to measure the background signal from the instrument, was subtracted from the absorbance at 490 nm to calculate the LDH activity."}, "[2]": {"test_system": "pTau (181)", "experiment": "pTau (181) ELISA in pTau transfected B35 cells", "assay_type": "cell-based, rat", "conditions": "24 hour transfection"}, "[3]": {"test_system": "α-synuclein", "experiment": "α-synuclein ELISA in α-synuclein-transfected B35 cells", "assay_type": "cell-based, rat", "conditions": "transfected B35 cell culture model, doses 10 uM-1 mM", "protocol": "Rat neuroblastoma B35 cells were grown in Dulbecco's Modified Eagle's Medium (DMEM) with 10% Fetal Bovine Serum (FBS) and 1% penicillin/streptomycin and incubated at 37° C. with 5% CO2. For the experiments, cells were transferred to 12-well plates (Cat. #150628, ThermoFisher, Waltham, MA) and grown to at least 70% confluence. Transient transfection was performed with 3 μg P301 L tau (Cat. #30145, Addgene) cDNA or 3 μg human α-synuclein cDNA using Fugene HD transfection reagent (Cat. #E2311, Promega, Madison WI) for 24 hours. Cells were treated with 1 mM, 100 μM, 10 μM, 1 μM, 0.1 μM, 0.01 μM, and 0.001 μM dissolved in DMSO or an equivalent 5 ul of DMSO for 5 hours. Cell culture media was collected and cells were harvested using sodium-tris, EDTA, NP-40 (STEN) buffer and centrifuged at 10,000×g for 20 minutes at 4′C and supernatant was collected. Cell viability was determined via lactate dehydrogenase assay (Cat. #88954, Thermofisher) and MTT assay (Cat. #V13154, Thermofisher). Protein was extracted by removing culture medium and adding 0.2 ml 1× STEN buffer (50 mM. Tris (pH 7.6), 150 mM NaCl, 2 mM EDTA, 0.2% NP-40, 0.2% BSA, 20 mM. PMSF and protease cocktail inhibitor) to cell layer and incubated on ice for 10 minutes. The bottom of the well was scraped and allowed to incubate on ice for an additional 10 minutes. Cell lysates were collected, stored at −80° C., and used for additional analyses.\nTo perform transient transfection of α-synuclein into the rat neuroblastoma B35 cells FuGene® HD Transfection Reagent (Promega Corporation, Madison, WI) was used. Cells were grown in 12-well dishes. […]\nHuman α-synuclein and p-tau ELISA were performed using 50 μl (1 μg/4 μl) of cell lysates detected with 50 μl primary antibody (3 h) and 100 μl anti-rabbit secondary antibody (30 min) at RT. α-Synuclein levels were measured using human specific ELISA (Invitrogen Inc., Carlsbad, CA) according to manufacturer's protocols. Tau was measured using specific tau at serine 396 according to manufacturer's protocol. […]"}, "[4]": {"test_system": "Tau (HT7)", "experiment": "Tau (HT7) in Tau transgenic mice", "assay_type": "in vivo, mouse", "conditions": "seven days of treatment, 1.25 mg/kg and 2.5 mg/kg"}, "[5]": {"target": "T1, Src (Mus musculus, UniProt P05480)", "T1 construct": "Brains from treated mice compared with DMSO treated mice were homogenized in STEN lysis buffer; from tissue; host or cells: brain of rTg4510 mice", "T1 sequence (P05480 whole entry)": "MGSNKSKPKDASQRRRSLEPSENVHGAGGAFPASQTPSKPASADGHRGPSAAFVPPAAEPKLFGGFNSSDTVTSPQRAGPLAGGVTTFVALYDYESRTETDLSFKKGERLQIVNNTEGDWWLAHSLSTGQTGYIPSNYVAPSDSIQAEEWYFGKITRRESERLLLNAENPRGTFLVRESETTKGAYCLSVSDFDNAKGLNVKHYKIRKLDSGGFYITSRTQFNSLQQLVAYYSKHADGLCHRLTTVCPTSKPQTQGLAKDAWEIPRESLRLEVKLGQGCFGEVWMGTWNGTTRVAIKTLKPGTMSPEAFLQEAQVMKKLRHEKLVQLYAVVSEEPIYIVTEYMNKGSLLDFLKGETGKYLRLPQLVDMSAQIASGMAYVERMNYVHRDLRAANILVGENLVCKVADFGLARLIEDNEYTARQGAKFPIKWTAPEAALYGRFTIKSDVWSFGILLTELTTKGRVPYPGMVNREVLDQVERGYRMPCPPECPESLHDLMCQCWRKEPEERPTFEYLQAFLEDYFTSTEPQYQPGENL", "experiment": "Activated Src immunoblot in rTG4510 mice", "assay_type": "in vivo", "conditions": "rTG4510 mice, 1.25, 2.5 or 5 mg/kg i.p., 7 days"}, "[6]": {"target": "T2, Ab1 (Mus musculus, UniProt P00520)", "T2 construct": "Brains from treated mice compared with DMSO treated mice were homogenized in STEN lysis buffer; from tissue; host or cells: brain of rTg4510 or TgAPP mice", "T2 sequence (P00520 whole entry)": "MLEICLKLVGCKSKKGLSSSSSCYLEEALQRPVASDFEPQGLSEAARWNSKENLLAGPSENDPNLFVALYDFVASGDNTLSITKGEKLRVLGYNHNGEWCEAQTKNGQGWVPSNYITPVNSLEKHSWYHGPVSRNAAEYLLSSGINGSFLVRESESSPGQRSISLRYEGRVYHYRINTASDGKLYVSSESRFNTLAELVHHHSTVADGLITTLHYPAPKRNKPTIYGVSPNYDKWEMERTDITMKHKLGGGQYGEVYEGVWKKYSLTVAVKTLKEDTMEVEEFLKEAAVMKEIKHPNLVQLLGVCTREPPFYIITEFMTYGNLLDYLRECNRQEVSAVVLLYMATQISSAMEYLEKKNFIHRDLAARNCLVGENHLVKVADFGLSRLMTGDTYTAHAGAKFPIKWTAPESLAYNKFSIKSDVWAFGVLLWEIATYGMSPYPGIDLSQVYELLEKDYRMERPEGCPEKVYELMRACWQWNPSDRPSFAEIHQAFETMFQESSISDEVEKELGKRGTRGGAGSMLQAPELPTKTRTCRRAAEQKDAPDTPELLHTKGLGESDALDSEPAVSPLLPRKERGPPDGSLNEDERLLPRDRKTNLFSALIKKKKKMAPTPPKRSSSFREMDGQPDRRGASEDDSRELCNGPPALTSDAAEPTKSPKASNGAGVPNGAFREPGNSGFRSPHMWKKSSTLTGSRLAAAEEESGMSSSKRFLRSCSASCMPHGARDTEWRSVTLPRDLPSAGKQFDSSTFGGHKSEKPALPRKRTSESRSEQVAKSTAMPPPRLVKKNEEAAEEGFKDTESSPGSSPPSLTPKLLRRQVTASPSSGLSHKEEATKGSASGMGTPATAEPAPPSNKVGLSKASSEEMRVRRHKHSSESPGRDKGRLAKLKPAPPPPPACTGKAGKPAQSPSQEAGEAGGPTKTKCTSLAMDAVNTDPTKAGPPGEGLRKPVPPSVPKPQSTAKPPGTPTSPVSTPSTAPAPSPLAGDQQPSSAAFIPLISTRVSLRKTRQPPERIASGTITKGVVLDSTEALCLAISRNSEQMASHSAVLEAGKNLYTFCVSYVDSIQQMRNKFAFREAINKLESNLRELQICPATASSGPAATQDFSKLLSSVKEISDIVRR", "experiment": "Activated Ab1 immunoblot in rTG4510 mice", "assay_type": "in vivo", "conditions": "rTG4510 mice, 1.25, 2.5 or 5 mg/kg i.p., 7 days"}, "[7]": {"test_system": "phosphorylated Tau (AT8)", "experiment": "Phosphorylated Tau (AT8) immunoblot in rTG4510 mice", "assay_type": "in vivo, mouse", "conditions": "all three doses (1.25, 2.5, 5 mg/kg) i.p., 7 days"}, "[8]": {"test_system": "pTau (191)", "experiment": "pTau in CamP301L mice", "assay_type": "in vivo, mouse", "conditions": "2.5 mg/kg or 5 mg/kg"}, "[9]": {"test_system": "human phosphorylated tau (Ser396)", "experiment": "Human phosphorylated tau (Ser396) ELISA in transgenic APP mice", "assay_type": "in vivo, mouse", "conditions": "2.5 mg/kg i.p., 21 days"}},
  "data": [
    {"smiles": "Cc1cccc(-c2cc3nccc(Nc4ccccc4)c3s2)c1", "note": "[BK40143, N-Phenyl-2-(m-tolyl)thieno[3,2-b]pyridin-7-amine]", "values": [
      {"measurement": "lactate dehydrogenase (LDH), neuroprotective effect", "setting": "[1]; 1 μM, 16 hours of treatment, compared to control", "value": "decrease"},
      {"measurement": "LDH measured in the media (cell death / toxicity)", "setting": "[1]; five hours of treatment", "value": "does not result in toxicity or cell death"},
      {"measurement": "LDH measured in the media (cell death / toxicity)", "setting": "[1]; five hours of treatment, listed as BK41043", "value": "without any change to LDH levels"},
      {"measurement": "cell viability via LDH", "setting": "[1]; five hours of treatment, with decreasing concentrations", "value": "stepwise increase in cell viability"},
      {"measurement": "pTau (181) levels", "setting": "[2]", "value": "reduces pTau (181) levels"},
      {"measurement": "level of alpha-synuclein", "setting": "[3]", "value": "appear to reduce the level of alpha-synuclein"},
      {"measurement": "Tau (HT7) level", "setting": "[4]", "value": "significantly reduced"},
      {"measurement": "activated Src, immunoblot", "setting": "[5]", "value": "did not engage"},
      {"measurement": "activated Src, immunoblot", "setting": "[5]; listed as BK-40143", "value": "does not engage"},
      {"measurement": "activated Ab1, immunoblot", "setting": "[6]", "value": "did not engage"},
      {"measurement": "activated Ab1, immunoblot", "setting": "[6]; listed as BK-40143", "value": "does not engage"},
      {"measurement": "reduction of phosphorylated Tau (AT8), immunoblot", "setting": "[7]", "value": "41-49%"},
      {"measurement": "pTau (191) level", "setting": "[8]", "value": "reduced"},
      {"measurement": "reduction of human phosphorylated tau (Ser396)", "setting": "[9]", "value": "over 80%"}
    ]}
  ]
}
